The values that follow come from paper PMC5218480 (PLoS ONE, 2017).

The test system of this assay is MV-4-11 cells. Nature of the assay: Gene expression microarray analysis (Affymetrix PrimeView) and GSEA. It is filed as cell-based, human. Details: RFU PODN (11730768_x_at) / Fold change /veh PODN (11730768_x_at) / RFU LINC00158 (11744669_a_at) / Fold change /veh LINC00158 (11744669_a_at) / RFU DUSP10 (11751237_a_at) / Fold change /veh DUSP10 (11751237_a_at) / RFU ID3 (11757404_x_at) / Fold change /veh ID3 (11757404_x_at) / RFU PLEKHG5 (11737974_s_at) / Fold change /veh PLEKHG5 (11737974_s_at) / RFU LRRC4B (11730491_at) / Fold change /veh LRRC4B (11730491_at) / RFU GIMAP4 (11747438_a_at) / Fold change /veh GIMAP4 (11747438_a_at) / RFU KRT8 (11758183_x_at) / Fold change /veh KRT8 (11758183_x_at) / RFU CNN1 (11734310_a_at) / Fold change /veh CNN1 (11734310_a_at) / RFU VPS37D (11726825_at) / Fold change /veh VPS37D (11726825_at) / RFU C10orf10 (11716522_x_at) / Fold change /veh C10orf10 (11716522_x_at) / RFU KIR2DL2 /// KIR2DL4 /// KIR2DL5A /// KIR2DL5B /// KIR2DS1 /// KIR2DS2 /// KIR2DS3 /// KIR2DS4 /// KIR3DL3 /// KIR3DL3 /// KIR3DS1 (11738374_at) / Fold change /veh KIR2DL2 /// KIR2DL4 /// KIR2DL5A /// KIR2DL5B /// KIR2DS1 /// KIR2DS2 /// KIR2DS3 /// KIR2DS4 /// KIR3DL3 /// KIR3DL3 /// KIR3DS1 (11738374_at) / RFU C1QL1 (11718748_at) / Fold change /veh C1QL1 (11718748_at) / RFU TMPRSS4 (11747572_a_at) / Fold change /veh TMPRSS4 (11747572_a_at) / RFU HAMP (11756126_x_at) / Fold change /veh HAMP (11756126_x_at) / RFU RNFT2 (11725882_a_at) / Fold change /veh RNFT2 (11725882_a_at) / RFU NR4A2 (11747474_a_at) / Fold change /veh NR4A2 (11747474_a_at) / RFU ABCC12 (11746883_a_at) / Fold change /veh ABCC12 (11746883_a_at) / RFU TMEM136 (11760407_x_at) / Fold change /veh TMEM136 (11760407_x_at) / RFU CLDN22 /// WWC2 (11732394_at) / Fold change /veh CLDN22 /// WWC2 (11732394_at) / RFU HLA-DPB1 (11760878_x_at) / Fold change /veh HLA-DPB1 (11760878_x_at) / RFU SPINT1 (11716480_a_at) / Fold change /veh SPINT1 (11716480_a_at) / RFU GAP43 (11754022_s_at) / Fold change /veh GAP43 (11754022_s_at) / RFU A4GNT (11735810_at) / Fold change /veh A4GNT (11735810_at) / RFU PRB3 (11715151_x_at) / Fold change /veh PRB3 (11715151_x_at) / RFU TUBB4B (11761932_at) / Fold change /veh TUBB4B (11761932_at) / RFU CAPN14 (11732068_a_at) / Fold change /veh CAPN14 (11732068_a_at) / RFU TMCC2 (11721928_a_at) / Fold change /veh TMCC2 (11721928_a_at) / RFU IRGQ (11745062_a_at) / Fold change /veh IRGQ (11745062_a_at) / RFU FAM174B (11720279_a_at) / Fold change /veh FAM174B (11720279_a_at) / RFU TMPRSS4 (11748680_a_at) / Fold change /veh TMPRSS4 (11748680_a_at) / RFU FAM212B (11763350_a_at) / Fold change /veh FAM212B (11763350_a_at) / RFU PLEKHG5 (11743358_a_at) / Fold change /veh PLEKHG5 (11743358_a_at) / RFU ZSCAN30 (11745921_a_at) / Fold change /veh ZSCAN30 (11745921_a_at) / RFU CMKLR1 (11741424_a_at) / Fold change /veh CMKLR1 (11741424_a_at) / RFU LOC101060620 /// MAPK8IP1 (11723275_at) / Fold change /veh LOC101060620 /// MAPK8IP1 (11723275_at) / RFU SPTSSB (11747773_x_at) / Fold change /veh SPTSSB (11747773_x_at) / RFU PRSS12 (11739890_at) / Fold change /veh PRSS12 (11739890_at) / RFU BIN1 (11741810_x_at) / Fold change /veh BIN1 (11741810_x_at) / RFU WNT11 (11732464_a_at) / Fold change /veh WNT11 (11732464_a_at) / RFU C10orf10 (11716521_a_at) / Fold change /veh C10orf10 (11716521_a_at) / RFU C5orf56 (11738089_at) / Fold change /veh C5orf56 (11738089_at) / RFU CYB561 (11721691_x_at) / Fold change /veh CYB561 (11721691_x_at) / RFU ANKRD19P (11752326_a_at) / Fold change /veh ANKRD19P (11752326_a_at) / RFU OR2T12 /// OR2T33 /// OR2T8 (11738714_s_at) / Fold change /veh OR2T12 /// OR2T33 /// OR2T8 (11738714_s_at) / RFU VCAN (11748164_a_at) / Fold change /veh VCAN (11748164_a_at) / RFU JSRP1 (11732532_at) / Fold change /veh JSRP1 (11732532_at) / RFU KRTAP10-11 (11738290_x_at) / Fold change /veh KRTAP10-11 (11738290_x_at) / RFU MYO3A (11730013_a_at) / Fold change /veh MYO3A (11730013_a_at) / RFU EBF3 (11725865_a_at) / Fold change /veh EBF3 (11725865_a_at) / RFU CAMK2N1 (11719241_x_at) / Fold change /veh CAMK2N1 (11719241_x_at) / RFU C5orf56 (11738088_a_at) / Fold change /veh C5orf56 (11738088_a_at) / RFU OLFML3 (11715873_a_at) / Fold change /veh OLFML3 (11715873_a_at) / RFU LOC100653217 /// NTM (11731650_a_at) / Fold change /veh LOC100653217 /// NTM (11731650_a_at) / RFU MAPK11 (11762145_a_at) / Fold change /veh MAPK11 (11762145_a_at) / RFU FIZ1 (11724087_x_at) / Fold change /veh FIZ1 (11724087_x_at) / RFU OASL (11726364_x_at) / Fold change /veh OASL (11726364_x_at) / RFU SOX15 (11748057_x_at) / Fold change /veh SOX15 (11748057_x_at) / RFU CD79A (11719716_a_at) / Fold change /veh CD79A (11719716_a_at) / RFU HIST1H1D (11736915_at) / Fold change /veh HIST1H1D (11736915_at) / RFU CASKIN2 (11723855_a_at) / Fold change /veh CASKIN2 (11723855_a_at) / RFU LOC730098 (11760151_x_at) / Fold change /veh LOC730098 (11760151_x_at) / RFU OR4N2 (11742367_at) / Fold change /veh OR4N2 (11742367_at) / RFU PRRT2 (11749266_a_at) / Fold change /veh PRRT2 (11749266_a_at) / RFU SNX32 (11753110_a_at) / Fold change /veh SNX32 (11753110_a_at) / RFU CDHR5 (11726645_a_at) / Fold change /veh CDHR5 (11726645_a_at) / RFU RCAN1 (11760418_a_at) / Fold change /veh RCAN1 (11760418_a_at) / RFU FAM167A (11723789_a_at) / Fold change /veh FAM167A (11723789_a_at) / RFU FAM26E (11764081_at) / Fold change /veh FAM26E (11764081_at) / RFU ISYNA1 (11749810_s_at) / Fold change /veh ISYNA1 (11749810_s_at) / RFU ACY1 (11761880_at) / Fold change /veh ACY1 (11761880_at) / RFU 11764098_at / Fold change /veh 11764098_at / RFU SAMD14 (11745864_x_at) / Fold change /veh SAMD14 (11745864_x_at) / RFU NPB (11741838_a_at) / Fold change /veh NPB (11741838_a_at) / RFU TMPRSS6 (11731388_a_at) / Fold change /veh TMPRSS6 (11731388_a_at) / RFU KRTAP10-2 (11738614_at) / Fold change /veh KRTAP10-2 (11738614_at) / RFU ARHGAP8 /// PRR5-ARHGAP8 (11727945_x_at) / Fold change /veh ARHGAP8 /// PRR5-ARHGAP8 (11727945_x_at) / RFU KRTAP5-7 /// NADSYN1 (11734609_at) / Fold change /veh KRTAP5-7 /// NADSYN1 (11734609_at) / RFU RASL12 (11751679_a_at) / Fold change /veh RASL12 (11751679_a_at) / RFU CDKN2B (11736163_a_at) / Fold change /veh CDKN2B (11736163_a_at) / RFU PRF1 (11729649_at) / Fold change /veh PRF1 (11729649_at) / RFU, ZNF638 /// ZNF638-IT1 / Fold change vs veh, ZNF638 /// ZNF638-IT1 / RFU, PANK3 / Fold change vs veh, PANK3 / RFU, SH3YL1 / Fold change vs veh, SH3YL1 / RFU, ZEB2 / Fold change vs veh, ZEB2 / RFU, NRIP1 / Fold change vs veh, NRIP1 / RFU, PTTG1IP / Fold change vs veh, PTTG1IP / RFU, CAPN2 / Fold change vs veh, CAPN2 / RFU, MED14 / Fold change vs veh, MED14 / RFU, SNORA58 / Fold change vs veh, SNORA58 / RFU, C1orf63 / Fold change vs veh, C1orf63 / RFU, LRRFIP1 / Fold change vs veh, LRRFIP1 / RFU, NDUFAF7 / Fold change vs veh, NDUFAF7 / RFU, SLC12A2 / Fold change vs veh, SLC12A2 / RFU, IBTK / Fold change vs veh, IBTK / RFU, ESF1 / Fold change vs veh, ESF1 / Fold change vs veh, TMEM50B / RFU, TAOK1 / Fold change vs veh, TAOK1 / RFU, ACBD3 / Fold change vs veh, ACBD3 / RFU, TMA16 / Fold change vs veh, TMA16 / RFU, RWDD3 / Fold change vs veh, RWDD3 / RFU, BCAT1 / Fold change vs veh, BCAT1 / RFU, EDEM3 / Fold change vs veh, EDEM3 / RFU, TMEM33 / Fold change vs veh, TMEM33 / RFU, WDR75 / Fold change vs veh, WDR75 / RFU, AHCTF1 / Fold change vs veh, AHCTF1 / RFU, TFRC / Fold change vs veh, TFRC / RFU, ZDHHC17 / Fold change vs veh, ZDHHC17 / RFU, NOM1 / Fold change vs veh, NOM1 / RFU, ARL8B / Fold change vs veh, ARL8B / RFU, ZBTB11 / Fold change vs veh, ZBTB11 / RFU, TAMM41 / Fold change vs veh, TAMM41 / RFU, KIAA1704 /// LOC100996395 / Fold change vs veh, KIAA1704 /// LOC100996395 / RFU, ING1 / Fold change vs veh, ING1 / RFU, TRMT61B / Fold change vs veh, TRMT61B / RFU, FUBP3 / Fold change vs veh, FUBP3 / RFU, TP53 / Fold change vs veh, TP53 / RFU, TNKS2 / Fold change vs veh, TNKS2 / RFU, ZFP14 / Fold change vs veh, ZFP14 / RFU, ACTR2 / Fold change vs veh, ACTR2 / RFU, PPP3R1 / Fold change vs veh, PPP3R1 / RFU, PIK3R1 / Fold change vs veh, PIK3R1 / RFU, HNRNPA1 / Fold change vs veh, HNRNPA1 / RFU, RNF170 / Fold change vs veh, RNF170 / RFU, ZNF28 / Fold change vs veh, ZNF28 / RFU, RNGTT / Fold change vs veh, RNGTT / RFU, OGT / Fold change vs veh, OGT / RFU, BRD1 / Fold change vs veh, BRD1 / RFU, MARS / Fold change vs veh, MARS / RFU, ZNF655 / Fold change vs veh, ZNF655 / RFU, FAHD1 / Fold change vs veh, FAHD1 / RFU, BDP1 / Fold change vs veh, BDP1 / RFU, LRRCC1 / Fold change vs veh, LRRCC1 / RFU, ARID1A / Fold change vs veh, ARID1A / RFU, ZNF146 / Fold change vs veh, ZNF146 / RFU, ZNF330 / Fold change vs veh, ZNF330 / RFU, GPN3 / Fold change vs veh, GPN3 / RFU, C9orf123 / Fold change vs veh, C9orf123 / RFU, N4BP2L2 / Fold change vs veh, N4BP2L2 / RFU, ARFIP1 / Fold change vs veh, ARFIP1 / RFU, FAM179B / Fold change vs veh, FAM179B / RFU, BCL10 / Fold change vs veh, BCL10 / RFU, UHRF1BP1L / Fold change vs veh, UHRF1BP1L / RFU, BET1 / Fold change vs veh, BET1 / RFU, CNOT2 / Fold change vs veh, CNOT2 / RFU, ZNF268 / Fold change vs veh, ZNF268 / Fold change vs veh, ZNF507 / RFU, DGCR2 / Fold change vs veh, DGCR2 / RFU, WDSUB1 / Fold change vs veh, WDSUB1 / Fold change vs veh, HSP90B1 /// MIR3652 / RFU, ADSS / Fold change vs veh, ADSS / RFU, GK / Fold change vs veh, GK / RFU, ZNF148 / Fold change vs veh, ZNF148 / RFU, TAF9 / Fold change vs veh, TAF9 / RFU, SLC1A5 / Fold change vs veh, SLC1A5 / RFU, SLMO2 / Fold change vs veh, SLMO2 / RFU, ABCC4 / Fold change vs veh, ABCC4 / RFU, LOC101060439 /// RAP1B / Fold change vs veh, LOC101060439 /// RAP1B / RFU, RFX7 / Fold change vs veh, RFX7 / RFU, GTPBP10 / Fold change vs veh, GTPBP10 / RFU, CNEP1R1 / Fold change vs veh, CNEP1R1 / RFU, BIVM-ERCC5 /// ERCC5 / Fold change vs veh, BIVM-ERCC5 /// ERCC5 / RFU, ILF3 / Fold change vs veh, ILF3 / RFU 11762660_at / Fold change /veh 11762660_at / RFU VCAN (11757783_s_at) / Fold change /veh VCAN (11757783_s_at) / RFU DDX43 (11728927_at) / Fold change /veh DDX43 (11728927_at) / RFU KRT8 (11758188_x_at) / Fold change /veh KRT8 (11758188_x_at) / RFU NKD1 (11759106_at) / Fold change /veh NKD1 (11759106_at) / RFU SRD5A1 (11742802_a_at) / Fold change /veh SRD5A1 (11742802_a_at) / RFU TPSAB1 /// TPSB2 (11721975_s_at) / Fold change /veh TPSAB1 /// TPSB2 (11721975_s_at) / RFU GSTM3 (11746129_a_at) / Fold change /veh GSTM3 (11746129_a_at) / RFU IL23R (11737362_x_at) / Fold change /veh IL23R (11737362_x_at) / RFU TMEM51 (11727254_a_at) / Fold change /veh TMEM51 (11727254_a_at) / RFU PIWIL2 (11732686_x_at) / Fold change /veh PIWIL2 (11732686_x_at) / RFU ORM1 (11744905_x_at) / Fold change /veh ORM1 (11744905_x_at) / RFU CCDC152 (11743942_at) / Fold change /veh CCDC152 (11743942_at) / RFU ECM1 (11717891_a_at) / Fold change /veh ECM1 (11717891_a_at) / RFU IL23R (11748794_a_at) / Fold change /veh IL23R (11748794_a_at) / RFU TNFAIP8L3 (11732012_x_at) / Fold change /veh TNFAIP8L3 (11732012_x_at) / RFU MBOAT4 (11741988_at) / Fold change /veh MBOAT4 (11741988_at) / RFU 11764193_at / Fold change /veh 11764193_at / RFU TMEM53 (11763286_at) / Fold change /veh TMEM53 (11763286_at) / RFU MAGEB2 (11727129_at) / Fold change /veh MAGEB2 (11727129_at) / RFU TMEM200A (11744735_a_at) / Fold change /veh TMEM200A (11744735_a_at) / RFU CCDC152 (11751479_a_at) / Fold change /veh CCDC152 (11751479_a_at) / RFU FAM211A (11726209_a_at) / Fold change /veh FAM211A (11726209_a_at) / RFU RGS16 (11746705_a_at) / Fold change /veh RGS16 (11746705_a_at) / RFU VCAN (11755009_s_at) / Fold change /veh VCAN (11755009_s_at) / RFU RHOB (11743442_s_at) / Fold change /veh RHOB (11743442_s_at) / RFU RGS16 (11720943_a_at) / Fold change /veh RGS16 (11720943_a_at) / RFU RGS16 (11720944_at) / Fold change /veh RGS16 (11720944_at) / RFU, VPS4B / Fold change vs veh, VPS4B / RFU, CREB1 / Fold change vs veh, CREB1 / RFU, DNAJC13 / Fold change vs veh, DNAJC13 / RFU, GNAQ / Fold change vs veh, GNAQ / RFU, CDK5R1 / Fold change vs veh, CDK5R1 / RFU, ZRANB3 / Fold change vs veh, ZRANB3 / RFU, CUL4A / Fold change vs veh, CUL4A / RFU, CCNY / Fold change vs veh, CCNY / RFU, UFL1 / Fold change vs veh, UFL1 / RFU, COG3 / Fold change vs veh, COG3 / RFU, DIAPH2 / Fold change vs veh, DIAPH2 / RFU, SKA2 / Fold change vs veh, SKA2 / RFU, AFF3 / Fold change vs veh, AFF3 / RFU, LMF1 / Fold change vs veh, LMF1 / RFU, IPO11 / Fold change vs veh, IPO11 / RFU, DFFB / Fold change vs veh, DFFB / RFU, FOXP1 / Fold change vs veh, FOXP1 / RFU, CARD8 / Fold change vs veh, CARD8 / RFU, STRN3 / Fold change vs veh, STRN3 / RFU, ADK / Fold change vs veh, ADK / RFU, RASSF2 / Fold change vs veh, RASSF2 / RFU, WIPF1 / Fold change vs veh, WIPF1 / RFU, LARP1B / Fold change vs veh, LARP1B / RFU, RASA1 / Fold change vs veh, RASA1 / RFU, RB1 / Fold change vs veh, RB1 / RFU, PPFIA1 / Fold change vs veh, PPFIA1 / RFU, MAT2A / Fold change vs veh, MAT2A / RFU, CCT5 / Fold change vs veh, CCT5 / RFU, WDR92 / Fold change vs veh, WDR92 / RFU, CUX1 / Fold change vs veh, CUX1 / RFU, TTC7A / Fold change vs veh, TTC7A / RFU, TMEM135 / Fold change vs veh, TMEM135 / RFU, DEPTOR / Fold change vs veh, DEPTOR / RFU, CPM / Fold change vs veh, CPM / RFU, DNAJB6 / Fold change vs veh, DNAJB6 / RFU, CACNA2D3 / Fold change vs veh, CACNA2D3 / RFU, DTX4 / Fold change vs veh, DTX4 / RFU, TFCP2 / Fold change vs veh, TFCP2 / RFU, GMCL1 /// GMCL1P1 / Fold change vs veh, GMCL1 /// GMCL1P1 / RFU, AEBP2 / Fold change vs veh, AEBP2 / RFU, SNHG1 /// SNORD22 /// SNORD25 /// SNORD26 /// SNORD27 /// SNORD28 /// SNORD29 /// SNORD31 / Fold change vs veh, SNHG1 /// SNORD22 /// SNORD25 /// SNORD26 /// SNORD27 /// SNORD28 /// SNORD29 /// SNORD31 / Fold change (Aza/veh), C12orf56 (ProbeSet 11735607_a_at) / Fold change (ACY-1035/veh), C12orf56 (ProbeSet 11735607_a_at) / Fold change (Aza/veh), FGFR1OP (ProbeSet 11751329_s_at) / Fold change (ACY-1035/veh), FGFR1OP (ProbeSet 11751329_s_at) / Fold change (Aza/veh), VPS36 (ProbeSet 11739960_a_at) / Fold change (ACY-1035/veh), VPS36 (ProbeSet 11739960_a_at) / RFU SYPL1 (11715823_x_at) / Fold change /veh SYPL1 (11715823_x_at) / RFU IGFBP7 (11715501_s_at) / Fold change /veh IGFBP7 (11715501_s_at) / RFU REEP3 (11722064_at) / Fold change /veh REEP3 (11722064_at) / RFU IGLL1 (11728026_x_at) / Fold change /veh IGLL1 (11728026_x_at): dose or concentration left out as unconfirmed. The conditions noted are these: MV-4-11 cells, 48 hours.

Turning to `Nc1ccc(-c2cccs2)cc1NC(=O)c1ccc2c(c1)cc(C1CC1)n2CCN1CCOCC1` [ACY-1035], the “Fold change /veh CAPN14 (11732068_a_at)” value amounted to 1.08.
